In data set [1] the test system is masculinizing activity. To be noted: low blood concentrations; cited from earlier work.
The subject of data set [2] is hypocalcemic effect of calcitonin. To be noted: castrated rats; cited from earlier work.
The test system of data set [3] is bone. Particulars: cited from earlier work.
In data set [4] the test system is antibody 144A. The data set is described as follows: MPA radioimmunoassay, specificity of antibody 144A. The format is binding, rabbit. The source says:
Antibody 144A was raised in rabbits against 17-hydroxyprogesterone-3-0-carboxymethyloxime-BSA. The labeled steroid used in the radioimmunoassay (RIA) was methyl-17α-hydroxyprogesterone acetate, 6α-[1,2-^3 H(N)]- obtained from NEN (CAT NO: NET 480) while the reference preparation was medroxyprogesterone acetate (MPA) obtained from Steraloids. The assay buffer used was 0.1% gelatin in 0.1M sodium phosphate, 0.15M sodium chloride, 0.1% sodium azide, pH 7.2. The extraction solvent mixture was ethyl ether-acetone (9:1, v:v) [EEA] while the LH-20 chromatography solvent mixture was iso-octane: toluene: methanol (90:5:5;v:v:v) [IOTH].
One ml of plasma was extracted twice with 5 ml of EEA. The extracts were evaporated to dryness with nitrogen and the remaining residue was dissolved in one ml of IOTH. The extracts were then subjected to LH-20 chromatography on […] columns (Coming CAT NO: 05 722A) filled with 2 g of LH-20 (Pharmacia). The gel was washed with 30 ml of IOTH before addition of one ml of sample and elution with IOTH. The first 6 ml were discarded. The following 10, 16.5 and 27.5 ml of eluent were fraction I (progesterone), II (MPA) and III (17-LH-progesterone), respectively. Fraction II was evaporated to dryness and reconstituted in 1.5 ml of assay buffer.
To each 12 x 75 mm borosilicate test tube was added: 0.2 ml containing 25,000 DPM of tritiated steroid, 0.5 ml of reference preparation ranging from 5 to 5000 pg/tube or 0.5 ml of extracted sample fraction II, 0.2 ml of antiserum 144A diluted 1/5000 or 0.2 ml of assay buffer to account for non specific binding. The tubes were then incubated overnight at 4° C. Then, 0.2 ml 2% charcoal Norit-A, 0.2% Dextran T-70 diluted in water was added. The tubes were then shaken gently and, after 10 min, they were centrifuged at 2000 x g for 10 min. The supernatant was mixed with 8 ml of Formula-989 (NEN: NEF-989) and the radioactivity was counted in a β-counter.

The subject of data set [5] is bone. To be noted: in vivo; cited from earlier work.
Data set [6] has as its system pituitary AR. Particulars: in vivo; cited from earlier work.
Data set [7] relates to endometriosis. Particulars: high dose, 6 months, cited from earlier work.
Data set [8] relates to endometrial cancer. To be noted: high dose; cited from earlier work.
For data set [9], the system named is pituitary AR. Particulars: rat, in vivo; cited from earlier work.
The subject of data set [10] is breast cancer. To be noted: high doses, unselected breast cancer patients; cited from earlier work.
Data set [11] concerns estrogen binding in the endometrium. Particulars: oral, follicular phase; cited from earlier work.
Data set [12] deals with ZR-75-1 human breast cancer cells. To be noted: cited from earlier work.
In data set [13] the test system is ventral prostate. To be noted: rat, in vivo; cited from earlier work.
The conditions of data set [14]: cited from earlier work.
The subject of data set [15] is kidney. To be noted: mouse, in vivo; cited from earlier work.
A short description of data set [16]: Stability to gamma sterilization (SEC, viscosity). The format is physicochemical. Particulars: 2.2 Megarads. The source says:
FIGS. 10A and 10B show, in (A), "the variation of the different parameters" [M(n-1), Mn, Mw, Mz,M(z+1)] characteristics of the molecular mass of 50:50 poly[DL-lactide-co-glycolide] following exposure to the indicated levels of gamma irradiation (Mrad); and, in (B), the variation of the polydensity (Mw/Mn) versus the level of gamma irradiation (Mrad).
Before injection, the microspheres were sterilized by exposure to 2.2 Megarads of gamma radiation achieved with a Cobalt-60 source (Gammacell 200). The stability of MPA was checked by steric exclusion chromatography (SEC) while the stability of the polymer was analyzed by SEC using polystyrene standards for calibration and by the modification of the relative viscosity using a Ubbelohde capillary viscometer.
Samples of batch MPA-MB-V have been exposed to different amounts of gamma radiation (0,1.1, 2.2 Megarads) and the molecular mass distribution parameters [M(n-1), Mn, Mw, Mz, M(z+1)] (see FIG. 10A) as well as their polydispersity (Mw/Mn) (FIG. 10B) were measured.

For data set [17], the system named is bone. To be noted: in vivo; cited from earlier work. The source holds these as a separate data set.
Data set [18] concerns bone resorption. To be noted: in vivo; cited from earlier work.

Molecules are shown by their SMILES. In brackets after ≈: the same amount, converted by molar mass. Where two headings read alike, the source gives them in different places.

For `C[C@]12CC[C@H]3[C@@H](CCC4=CC(=O)CC[C@@]43C)[C@@H]1CC[C@@H]2O` [testosterone], in data set [1], the masculinizing activity result is given as “considerable masculinizing activity even at low blood concentrations”. Further, the “hypocalcemic effect of calcitonin” value in [2] is “increases the hypocalcemic effect of calcitonin”. Further, in data set [3] (hypogonadal males), the bone histomorphometry result was “increases in relative osteoid volume, total osteoid surface, linear extend of bone formation and bone mineralization”. Moreover, in data set [3] (in vivo), the “nitrogen, calcium and phosphate balance” value was “positive nitrogen, calcium and phosphate balance”; the “osteoid surfaces and beam width” value is “increase osteoid surfaces and beam width”. In addition, the bone formation result in data set [3] (men with primary hypogonadism) is reported as “increases bone formation”. The “cross-reactivity with antibody 144A” value in [4] was “less than 0.1%”. Further, the “overall quantity of bone” value in data set [5] is reported as “increases the overall quantity of bone”.

Turning to `CC(=O)O[C@]1(C(C)=O)CC[C@H]2[C@@H]3C[C@H](C)C4=CC(=O)CC[C@]4(C)[C@H]3CC[C@@]21C` [MPA, 6-alpha-methyl,17-alpha-acetoxy progesterone], the “effect on gonadotropin secretion” value in data set [6] is on record as “inhibitory effect”. Also, in data set [7] (placebo 6%), the partial resolution is on record as 13 % of subjects. For the same compound, in data set [7] (placebo 12%), the “resolution of the disease” value is given as 50 % of the patients. In addition, in [8], the “treatment of endometrial cancer” value was “successfully used” and the “treatment of endometrial carcinoma compared with Tamoxifen” value was “success similar to that of Tamoxifen”. Also, the “effect on gonadotropin secretion” value in data set [9] is given as “inhibitory effect”. For the same compound, the “overall clinical response rate” value in [10] is 40%. For the same compound, the “level of estrogen binding in the endometrium” value in [11] was “decrease in the level of estrogen binding”. In addition, in data set [12], the “concentration of maximal inhibitory action on human breast cancer cell growth” value is reported as 1 nM, the “dose required for glucocorticoid action relative to maximal growth inhibition” value is recorded as “approximately 1000 fold” and the “mechanism of growth inhibition of ZR-75-1 cells” value is “mainly due to the androgenic properties of the compound”. The androgenic activity result in data set [13] is “exhibits androgenic activity”. The virilizing symptoms entry in [14] (acne, hirsutism) was “seldom causes significant virilizing symptoms”. In [14] (human, in vivo), the adrenal function entry is “Suppression of adrenal function”; the glucocorticoid-like side effects result is “Cushingoid syndrome, euphoria and subjective pain relief”. Further, the “ED50 value (RIA)” value in data set [4] (MPA radioimmunoassay) was determined as 0.315 ng/mL (≈ 0.815 nM). In data set [15], the androgenic activity result is on record as “exhibits androgenic activity”. Besides, in data set [16], the “stability to gamma radiation” value is given as “does not damage MPA”.

Take `CCCCCCCCCC(=O)O[C@H]1CC[C@H]2[C@@H]3CCC4=CC(=O)CC[C@@H]4[C@H]3CC[C@]12C` [nandrolone decanoate]: in [17], the bone mass entry is recorded as “increased bone mass” and the “bone resorption, osteoporotic women” value was “reduced bone resorption”. In addition, the bone resorption result in [18] is “reduced bone resorption”.

Values taken from US5861387A, “Controlled release systems and low dose androgens” (Endorecherche Inc., priority 1995, dated 1999).
